Assay: Aqueous solubility of the compound in simulated gastric fluid at pH 1.5
Format: ADME
Details: simulated gi fluid

Row | SMILES | solubility
1 | Cc1cnc2[nH]cc(C(=O)c3c(F)ccc(NS(=O)(=O)c4cccc(F)c4)c3F)c2c1 | Soluble
2 | CCCS(=O)(=O)Nc1ccc(F)c(C(=O)c2c[nH]c3ncc(-c4cnc(N(C)C)nc4)cc23)c1F | Soluble
3 | COc1ncc(-c2cnc3[nH]cc(C(=O)c4c(F)ccc(NS(=O)(=O)c5c(F)cccc5F)c4F)c3c2)cn1 | Insoluble
4 | CCCS(=O)(=O)Nc1ccc(F)c(C(=O)c2c[nH]c3ncc(-c4ccc(F)nc4)cc23)c1F | Insoluble
5 | N#Cc1ccnc2[nH]cc(C(=O)c3c(F)ccc(NS(=O)(=O)c4ccccc4F)c3F)c12 | Soluble
6 | N#Cc1cnc2[nH]cc(C(=O)c3cccc(NS(=O)(=O)c4cccnc4)c3F)c2c1 | Soluble
7 | COc1cnc2[nH]cc(C(=O)c3c(F)ccc(NS(=O)(=O)c4cc(F)ccc4F)c3F)c2c1 | Insoluble
8 | CCCS(=O)(=O)Nc1ccc(F)c(C(=O)c2c[nH]c3ncc(-c4cnc(N5CCOCC5)nc4)cc23)c1F | Soluble
9 | CCCS(=O)(=O)Nc1ccc(F)c(C(=O)c2c[nH]c3ncc(C#CCOC)cc23)c1F | Insoluble
10 | CCCS(=O)(=O)Nc1ccc(F)c(C(=O)c2c[nH]c3ncc(-c4ccc(OCCCN5CCOCC5)nc4)cc23)c1F | Soluble
11 | CCCS(=O)(=O)Nc1ccc(F)c(C(=O)c2c[nH]c3ncc(-c4cnn(CCN5CCOCC5)c4)cc23)c1F | Soluble

More lines, now with the values ahead:

Row | solubility | SMILES
12 | Insoluble | CCCS(=O)(=O)Nc1ccc(F)c(C(=O)c2c[nH]c3ncc(-c4cn[nH]c4)cc23)c1F
13 | Soluble | CCCS(=O)(=O)Nc1ccc(F)c(C(=O)c2c[nH]c3ncc(-c4cncc(S(C)(=O)=O)c4)cc23)c1F
14 | Insoluble | CCCS(=O)(=O)Nc1ccc(F)c(C(=O)c2c[nH]c3ncc(-c4ccc(C(=O)NCC)nc4)cc23)c1F
15 | Soluble | Cc1cnc2[nH]cc(C(=O)c3c(F)ccc(NS(=O)(=O)c4cccnc4)c3F)c2c1
16 | Soluble | N#Cc1cnc2[nH]cc(C(=O)c3c(F)ccc(NS(=O)(=O)c4ccccc4F)c3F)c2c1

Assay: Aqueous solubility of the compound in simulated intestinal fluid at pH 6.8
Format: ADME
Details: simulated gi fluid

Row | SMILES | solubility
17 | Cc1cnc2[nH]cc(C(=O)c3c(F)ccc(NS(=O)(=O)c4cccc(F)c4)c3F)c2c1 | Soluble
18 | CCCS(=O)(=O)Nc1ccc(F)c(C(=O)c2c[nH]c3ncc(-c4cnc(N(C)C)nc4)cc23)c1F | Insoluble
19 | COc1ncc(-c2cnc3[nH]cc(C(=O)c4c(F)ccc(NS(=O)(=O)c5c(F)cccc5F)c4F)c3c2)cn1 | Insoluble
20 | CCCS(=O)(=O)Nc1ccc(F)c(C(=O)c2c[nH]c3ncc(-c4ccc(F)nc4)cc23)c1F | Insoluble
21 | N#Cc1ccnc2[nH]cc(C(=O)c3c(F)ccc(NS(=O)(=O)c4ccccc4F)c3F)c12 | Soluble
22 | N#Cc1cnc2[nH]cc(C(=O)c3cccc(NS(=O)(=O)c4cccnc4)c3F)c2c1 | Soluble
23 | COc1cnc2[nH]cc(C(=O)c3c(F)ccc(NS(=O)(=O)c4cc(F)ccc4F)c3F)c2c1 | Soluble
24 | CCCS(=O)(=O)Nc1ccc(F)c(C(=O)c2c[nH]c3ncc(-c4cnc(N5CCOCC5)nc4)cc23)c1F | Insoluble
25 | CCCS(=O)(=O)Nc1ccc(F)c(C(=O)c2c[nH]c3ncc(C#CCOC)cc23)c1F | Insoluble
26 | CCCS(=O)(=O)Nc1ccc(F)c(C(=O)c2c[nH]c3ncc(-c4ccc(OCCCN5CCOCC5)nc4)cc23)c1F | Insoluble
27 | CCCS(=O)(=O)Nc1ccc(F)c(C(=O)c2c[nH]c3ncc(-c4cnn(CCN5CCOCC5)c4)cc23)c1F | Insoluble

Continued, values first:

Row | solubility | SMILES
28 | Insoluble | CCCS(=O)(=O)Nc1ccc(F)c(C(=O)c2c[nH]c3ncc(-c4cn[nH]c4)cc23)c1F
29 | Insoluble | CCCS(=O)(=O)Nc1ccc(F)c(C(=O)c2c[nH]c3ncc(-c4cncc(S(C)(=O)=O)c4)cc23)c1F
30 | Insoluble | CCCS(=O)(=O)Nc1ccc(F)c(C(=O)c2c[nH]c3ncc(-c4ccc(C(=O)NCC)nc4)cc23)c1F
31 | Soluble | Cc1cnc2[nH]cc(C(=O)c3c(F)ccc(NS(=O)(=O)c4cccnc4)c3F)c2c1
32 | Soluble | N#Cc1cnc2[nH]cc(C(=O)c3c(F)ccc(NS(=O)(=O)c4ccccc4F)c3F)c2c1

Assay: Aqueous solubility of the compound in hepes buffer at pH 7.4
Format: physicochemical
Details: not given

Row | SMILES | solubility
33 | Cc1cnc2[nH]cc(C(=O)c3c(F)ccc(NS(=O)(=O)c4cccc(F)c4)c3F)c2c1 | Soluble
34 | CCCS(=O)(=O)Nc1ccc(F)c(C(=O)c2c[nH]c3ncc(-c4cnc(N(C)C)nc4)cc23)c1F | Insoluble
35 | COc1ncc(-c2cnc3[nH]cc(C(=O)c4c(F)ccc(NS(=O)(=O)c5c(F)cccc5F)c4F)c3c2)cn1 | Soluble
36 | CCCS(=O)(=O)Nc1ccc(F)c(C(=O)c2c[nH]c3ncc(-c4ccc(F)nc4)cc23)c1F | Insoluble
37 | N#Cc1ccnc2[nH]cc(C(=O)c3c(F)ccc(NS(=O)(=O)c4ccccc4F)c3F)c12 | Soluble
38 | N#Cc1cnc2[nH]cc(C(=O)c3cccc(NS(=O)(=O)c4cccnc4)c3F)c2c1 | Soluble
39 | COc1cnc2[nH]cc(C(=O)c3c(F)ccc(NS(=O)(=O)c4cc(F)ccc4F)c3F)c2c1 | Soluble
40 | CCCS(=O)(=O)Nc1ccc(F)c(C(=O)c2c[nH]c3ncc(-c4cnc(N5CCOCC5)nc4)cc23)c1F | Insoluble
41 | CCCS(=O)(=O)Nc1ccc(F)c(C(=O)c2c[nH]c3ncc(C#CCOC)cc23)c1F | Soluble
42 | CCCS(=O)(=O)Nc1ccc(F)c(C(=O)c2c[nH]c3ncc(-c4ccc(OCCCN5CCOCC5)nc4)cc23)c1F | Insoluble
43 | CCCS(=O)(=O)Nc1ccc(F)c(C(=O)c2c[nH]c3ncc(-c4cnn(CCN5CCOCC5)c4)cc23)c1F | Insoluble

Other lines, results leading:

Row | solubility | SMILES
44 | Insoluble | CCCS(=O)(=O)Nc1ccc(F)c(C(=O)c2c[nH]c3ncc(-c4cn[nH]c4)cc23)c1F
45 | Soluble | CCCS(=O)(=O)Nc1ccc(F)c(C(=O)c2c[nH]c3ncc(-c4cncc(S(C)(=O)=O)c4)cc23)c1F
46 | Insoluble | CCCS(=O)(=O)Nc1ccc(F)c(C(=O)c2c[nH]c3ncc(-c4ccc(C(=O)NCC)nc4)cc23)c1F
47 | Soluble | Cc1cnc2[nH]cc(C(=O)c3c(F)ccc(NS(=O)(=O)c4cccnc4)c3F)c2c1
48 | Soluble | N#Cc1cnc2[nH]cc(C(=O)c3c(F)ccc(NS(=O)(=O)c4ccccc4F)c3F)c2c1

Assay: Aqueous solubility of the compound in simulated intestinal fluid at pH 4.5
Format: ADME
Details: simulated gi fluid

Row | SMILES | solubility
49 | Cc1cnc2[nH]cc(C(=O)c3c(F)ccc(NS(=O)(=O)c4cccc(F)c4)c3F)c2c1 | Insoluble
50 | CCCS(=O)(=O)Nc1ccc(F)c(C(=O)c2c[nH]c3ncc(-c4cnc(N(C)C)nc4)cc23)c1F | Insoluble
51 | COc1ncc(-c2cnc3[nH]cc(C(=O)c4c(F)ccc(NS(=O)(=O)c5c(F)cccc5F)c4F)c3c2)cn1 | Insoluble
52 | CCCS(=O)(=O)Nc1ccc(F)c(C(=O)c2c[nH]c3ncc(-c4ccc(F)nc4)cc23)c1F | Insoluble
53 | N#Cc1ccnc2[nH]cc(C(=O)c3c(F)ccc(NS(=O)(=O)c4ccccc4F)c3F)c12 | Soluble
54 | N#Cc1cnc2[nH]cc(C(=O)c3cccc(NS(=O)(=O)c4cccnc4)c3F)c2c1 | Soluble
55 | COc1cnc2[nH]cc(C(=O)c3c(F)ccc(NS(=O)(=O)c4cc(F)ccc4F)c3F)c2c1 | Insoluble
56 | CCCS(=O)(=O)Nc1ccc(F)c(C(=O)c2c[nH]c3ncc(-c4cnc(N5CCOCC5)nc4)cc23)c1F | Insoluble
57 | CCCS(=O)(=O)Nc1ccc(F)c(C(=O)c2c[nH]c3ncc(C#CCOC)cc23)c1F | Soluble
58 | CCCS(=O)(=O)Nc1ccc(F)c(C(=O)c2c[nH]c3ncc(-c4ccc(OCCCN5CCOCC5)nc4)cc23)c1F | Soluble
59 | CCCS(=O)(=O)Nc1ccc(F)c(C(=O)c2c[nH]c3ncc(-c4cnn(CCN5CCOCC5)c4)cc23)c1F | Soluble

The remaining lines, values ahead:

Row | solubility | SMILES
60 | Insoluble | CCCS(=O)(=O)Nc1ccc(F)c(C(=O)c2c[nH]c3ncc(-c4cn[nH]c4)cc23)c1F
61 | Insoluble | CCCS(=O)(=O)Nc1ccc(F)c(C(=O)c2c[nH]c3ncc(-c4cncc(S(C)(=O)=O)c4)cc23)c1F
62 | Insoluble | CCCS(=O)(=O)Nc1ccc(F)c(C(=O)c2c[nH]c3ncc(-c4ccc(C(=O)NCC)nc4)cc23)c1F
63 | Soluble | Cc1cnc2[nH]cc(C(=O)c3c(F)ccc(NS(=O)(=O)c4cccnc4)c3F)c2c1
64 | Soluble | N#Cc1cnc2[nH]cc(C(=O)c3c(F)ccc(NS(=O)(=O)c4ccccc4F)c3F)c2c1

— ChEMBL document CHEMBL3879902, “Compounds and methods for kinase modulation, and indications thereof” (2012)
